Laboratory results: patent publication US20250289786A1, “CHLORINATED MONOCARBONYL CURCUMIN COMPOUNDS, PREPARATION METHOD, AND APPLICATION” (Southwest Medical University, priority 2024, published 2025)

Legend:
[1] = Solubility detection of CAK01-CAK07; type: physicochemical
Text: The chlorinated monocarbonyl curcumin compounds CAK01-CAK07 prepared under the conditions of Example 1 were taken for nuclear magnetic resonance, mass spectrometry, solubility, and melting point detection.

PC12 cells = experiment: MTT toxicity (safety evaluation) on PC12 nerve cells; type: cell-based
Experimental: The toxicity of each drug to PC12 cells was determined by MTT assay. The principle of the MTT colorimetric method: there is succinate dehydrogenase in the mitochondria of living cells, which can make exogenous MTT become blue-purple crystal formazan insoluble in water, this phenomenon cannot be observed in dead cells. The blue-purple crystal formazan can be dissolved by DMSO, and the absorbance value is measured by a microplate reader at a wavelength of 490 nm, which in turn reflects the number of living cells. […] The operation method is as follows:
The cells were resuscitated with DMEM high glucose medium containing 10% fetal bovine serum and cultured in a 5% CO2 cell incubator at 37° C., when the cells grew to the logarithmic growth phase, they were inoculated into a 96-well plate and cultured for 24 hours, each well was added with 100 μL of each compound solution at the corresponding gradient concentration (60, 30, 15, 7.5, 3.75 μM), after incubation in the incubator for 24 h or 48 h, 20 μL of MTT was added to continue incubation for 4 h, the supernatant was discarded and 150 μL of DMSO was added to dissolve the blue-purple crystals, after shaking for 10 min, the cell viability was detected by a microplate reader, and classified according to the cytotoxicity standard. The relevant calculation formula is as follows: […]

[2] = ABTS free radical capture ability; type: biochemical; conditions: 20 min reaction in the dark
Experimental: 66.2 mg of K2S2O8 was weighed and placed in a 100 mL volumetric flask, pure water was added to the scale line to prepare a 2.45 mmol/L K2S2O8 solution. 192 mg of ABTS was accurately weighed and placed in a 25 mL volumetric flask, and the newly prepared K2S2O8 solution was added for dissolving and constant volume dilution, after standing in the dark for 20 h, the ABTS mother liquor was obtained. Before use, to make the measured value more accurate, the ABTS mother liquor needs to be diluted with a PBS solution of pH7.4 until the absorbance range of the ABTS working solution at 734 nm is 0.70±0.02.
Drug concentration screening: To avoid the complete removal of free radicals by excessive drug concentration and the inability to compare the ability to capture ABTS free radicals, a preliminary screening of drug concentration is required before the formal test. A gradient concentration of compound solution was prepared, and a gradient concentration of Vit C solution was prepared as a positive control. A total of 450 μL of ABTS working solution was accurately absorbed into a 1.5 mL EP tube, and 150 μL of the gradient solution of each group of drugs was added, after 20 min of reaction in the dark, 150 μL of the reaction solution was taken and placed in a 96-well plate, the absorbance was measured by a microplate reader. Three duplicate wells were set for each concentration, and the drug concentration with absorbance between 0.2-0.7 was selected for subsequent determination.
Determination operation: After the drug concentration screening was completed, 7 concentration gradient groups were set within this concentration range. A total of 450 μL of ABTS working solution was accurately absorbed into a 1.5 mL EP tube, and 150 μL of the gradient solution of each group of drugs was added. After 20 min of reaction in the dark, 150 μL of the reaction solution was taken and placed in a 96-well plate, the absorbance was measured by a microplate reader. Three duplicate wells were set for each concentration, the positive control group was a gradient solution of Vit C, and the blank control group was an equal volume of anhydrous ethanol.

[3] = test system: liver, heart, spleen, lung, and kidney tissues; experiment: HE staining safety evaluation of mouse tissues; type: in vivo; conditions: kidney of mice, in words
[4] = test system: CUMS depression model mice; experiment: Sucrose preference test in CUMS depression model mice; type: in vivo, C57BL/6J mice
Text: (§1) After one week of adaptive feeding, the newly purchased mice were divided into a blank group and CUMS model group. The mice in the blank group were not subjected to behavioral intervention and were fed normally. Mice in the model group were given 1-2 unpredictable behavioral stimuli every day. […] When the same stimulation is continuous, the stimulation method is changed to ensure that the same stimulation is not continuous, and the model construction period is 42 days.

[5] = test system: CUMS depression model mice; experiment: Open field test in CUMS depression model mice; type: in vivo, C57BL/6J mice; conditions: 28 days, model 327.22±161.39 cm
Text: as §1

[6] = test system: Nrf2, HO-1, BDNF, and TrkB in the hippocampus; experiment: Western blot of hippocampal proteins in CUMS depression model mice; type: in vivo; conditions: low dose, in words
BV2 cells = experiment: ROS detection (DCFH-DA) in LPS-induced BV2 cells; type: cell-based; conditions: 10, 5 and 1 μM with LPS, in words
Text: When the body is in a long-term stress and stress state, a large number of oxidizing substances and inflammatory factors accumulate in the body, causing depression and inducing depression-like symptoms. LPS is a pro-inflammatory substance, which can induce the increase of inflammatory factors, the accumulation of reactive oxygen species ROS and the release of NO in BV2 cells. The anti-inflammatory and antioxidant effects of drugs can be evaluated by establishing an LPS stress model.
ROS detection: The fluorescent dye probe DCFH-DA can freely pass through the BV2 cell membrane, and the dye entering the cell is enzymatically hydrolyzed to DCFH, at this time, it can no longer pass through the cell membrane. The intracellular ROS can oxidize DCFH to DCF with fluorescence, which can reflect the ROS content by detecting the fluorescence intensity of DCF. The specific operation is as follows: when BV2 cells grew to the logarithmic growth phase, they were inoculated in a 6-well plate at 1×10^6 cells/well and cultured for 24 h. […] After the cells were co-cultured with compound CAK06 for 12 h, the cells were stained according to the instructions of the ROS detection kit, and photographed and analyzed by an inverted fluorescence microscope.

In the case of COc1cc(/C=C2\CNC/C(=C\c3cc(Cl)c(O)c(OC)c3)C2=O)cc(Cl)c1O [CAK06, 3,5-bis ((E)-3-chloro-4-hydroxy-5-methoxybenzylidene) piperidin-4-one], the solubility [1] is reported as 171.77 mg/100 g, the “cytotoxicity to PC12 cells” value (PC12 cells; 3.75-60 μM, 24 h and 48 h, in words) is reported as “no significant cytotoxicity” and the “Rank (cytotoxicity standard) 24 h” value (PC12 cells; PC12, 3.75 μM) is reported as 0. For the same molecule, the “Relative growth rate (%) 24 h” value (PC12 cells; PC12, 3.75 μM) was 98.50 ± 3.77%, the “Rank (cytotoxicity standard) 48 h” value (PC12 cells; PC12, 3.75 μM) was 0 and the “Relative growth rate (%) 48 h” value (PC12 cells; PC12, 3.75 μM) was 100.05 ± 0.75%. The “Rank (cytotoxicity standard) 24 h” value (PC12 cells; PC12, 7.5 μM) was 0, the “Relative growth rate (%) 24 h” value (PC12 cells; PC12, 7.5 μM) was 100.42 ± 2.85% and the “Rank (cytotoxicity standard) 48 h” value (PC12 cells; PC12, 7.5 μM) was 1. The “Relative growth rate (%) 48 h” value (PC12 cells; PC12, 7.5 μM) was 92.97 ± 2.54%, the “Rank (cytotoxicity standard) 24 h” value (PC12 cells; PC12, 15 μM) was 1 and the “Relative growth rate (%) 24 h” value (PC12 cells; PC12, 15 μM) was 98.55 ± 4.12%. The “Rank (cytotoxicity standard) 48 h” value (PC12 cells; PC12, 15 μM) was 1, the “Relative growth rate (%) 48 h” value (PC12 cells; PC12, 15 μM) was 88.82 ± 0.28% and the “Rank (cytotoxicity standard) 24 h” value (PC12 cells; PC12, 30 μM) was 1. For the same molecule, the “Relative growth rate (%) 24 h” value (PC12 cells; PC12, 30 μM) was 94.56 ± 2.82%, the “Rank (cytotoxicity standard) 48 h” value (PC12 cells; PC12, 30 μM) was 1 and the “Relative growth rate (%) 48 h” value (PC12 cells; PC12, 30 μM) was 93.60 ± 4.14%. The “Rank (cytotoxicity standard) 24 h” value (PC12 cells; PC12, 60 μM) was 0, the “Relative growth rate (%) 24 h” value (PC12 cells; PC12, 60 μM) was 114.78 ± 1.81% and the “Rank (cytotoxicity standard) 48 h” value (PC12 cells; PC12, 60 μM) was 0. The “Relative growth rate (%) 48 h” value (PC12 cells; PC12, 60 μM) was 109.26 ± 4.07%, the “IC50 values of ABTS captured” value [2] was 44.95 µg/mL and the “HE staining pathology of tissues” value [3] was “basically normal”. For the same molecule, the sucrose preference rate ([4]; 10 mg/kg oral once a day, 14th day, in words) was “failed to significantly increase the sucrose preference rate”, the sucrose preference rate ([4]; 10 mg/kg oral once a day, 28 days, model 61.36±2.18%) was 70.62±2.33% and the sucrose preference rate ([4]; 20 mg/kg oral once a day, 14th day, in words) was “significant increase”. For the same molecule, the sucrose preference rate ([4]; 20 mg/kg oral once a day, 28 days, model 61.36±2.18%) was 77.42±2.77%, the “overall activity distance in the open field test” value ([5]; 10 mg/kg oral once a day) was 868.90±280.97 cm and the “overall activity distance in the open field test” value ([5]; 20 mg/kg oral once a day) was 1336.66±264.87 cm. For the same molecule, the “expression of antioxidant-related proteins Nrf2 and HO-1” value [6] was “better expression than the Flu group” and the ROS fluorescence intensity (BV2 cells) was “decreased in a concentration-dependent manner”.
